Results as given in patent US8258123B2, “C-19 steroids for cosmetic and further uses” (ErlaCos GmbH, priority 2007, dated 2012).
“Also recorded” adds a separate entry of the source.

How the values were obtained:
[1] = tested on: skin over the predilection areas of cellulite; assay: Topical treatment of the skin over the predilection areas of cellulite; type: in vivo
Description: The border between the two layers is made up of collagen fibres. Strengthening this border by increasing its collagen content by stimulating the fibroblasts to produce more collagen leads to a marked improvement of the appearance of cellulite.

5α-reductase [2] = assay: 5α-reductase inhibition; type: biochemical
Description: According to the present invention, the use may correspondingly be determined by selecting the C-19 steroid compound having the aforementioned effects or properties (iii) to (vi) alone or in combination. These effects or properties (iii) to (vi) can be measured by correspondingly known methods. For example, 5α-reductase activity can be measured by a method described by Mitamura et al., Analytical Sciences 21, 1241-1244 (2005). The use according to the present invention may be further determined by a suitable administrated amount of the compound, and by an appropriate application condition, such as type of user/patient, or type of target site or organ enabling the aforementioned effects or properties (iii) to (vi) alone or in combination.

[3] = tested on: apocrine sweat glands in the axilla; assay: Topical application to the axilla, body odour; type: in vivo
Description: (§1) Not only in theory but also in practice the compounds of the present invention and in particular 4-OHT and its related analogous compounds are the ideal anabolic substances. […] This can be deduced from three different topical applications to the skin.
The majority of glands relevant for body odor are situated in the subcutaneous tissue. It is therefore difficult to apply effective substances directly. To this end a substance is preferably included facilitating the penetration into the skin.

5α-reductase [4] = assay: Reduction by 5α-reductase
androgen receptor (AR) = assay: Binding affinity to the androgen receptor against DHT as reference compound
Protocol: The compounds used according to the present invention preferably have a binding affinity to the androgen receptor (AR) higher than DHT; more preferably the binding affinity is high by having affinity specific to AR in a range of IC50≧500 nM, preferably IC50≧100 nM and more preferably IC50≧50 nM, wherein IC50 is defined as the concentration of the compound required to reduce specific binding of a reference compound, 5α-dihydrotestosterone (DHT), by 50%. The IC50-values can be determined by known methods using radioactively labelled DHT as reference compound, for example by a standard dextran-coated charcoal adsorption method as described by Raynaud et al., J. Steroid Biochem. 6, 615-622 (1975), using 1 nM reference concentrations of radiolabeled [^3H]-DHT, or by similar IC50 determination methods described in the literature. Because the concentration of AR in the target cell is very low, typically in the nanomolar range approximately, differences in binding constants to the order contemplated in the present invention are significant.

striae = assay: Topical treatment of striae; type: in vivo; details: suitable formulation containing 4-OHT
Description: Striae have also been treated according to the invention with a suitable formulation containing 4-OHT. […] Whereas striae rubrae are more disturbing on a fair skin striae albae are a considerable problem for dark skin.

aromatase = biological target: T1, aromatase (Homo sapiens, UniProt P11511); assay: Aromatization by aromatase
T1 sequence (P11511 1-503): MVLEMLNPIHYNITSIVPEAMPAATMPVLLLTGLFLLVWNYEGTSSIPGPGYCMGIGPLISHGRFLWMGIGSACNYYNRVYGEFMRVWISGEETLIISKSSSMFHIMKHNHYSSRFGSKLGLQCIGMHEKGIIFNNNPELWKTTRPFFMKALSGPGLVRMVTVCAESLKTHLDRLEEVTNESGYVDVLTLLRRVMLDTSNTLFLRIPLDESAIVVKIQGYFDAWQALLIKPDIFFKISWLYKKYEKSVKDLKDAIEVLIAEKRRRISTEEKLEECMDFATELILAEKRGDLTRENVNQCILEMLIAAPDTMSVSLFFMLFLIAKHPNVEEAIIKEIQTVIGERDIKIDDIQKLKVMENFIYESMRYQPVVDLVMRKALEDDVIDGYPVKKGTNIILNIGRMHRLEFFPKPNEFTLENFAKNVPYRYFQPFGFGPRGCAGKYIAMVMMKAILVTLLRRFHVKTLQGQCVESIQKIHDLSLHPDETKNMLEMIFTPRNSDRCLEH

hair follicles = assay: Topical treatment of body skin areas, hair growth; type: in vivo
Description: The situation in the body regions other than the scalp however is different. Sometimes hair growing excessively on other parts of the body is a nuisance. They are conventionally removed by depilation or epilation. Hot wax epilation restores the growth of hair in many dorming hair follicles (telogen hair) thereby increasing the frequency and painfulness of hot wax epilation. Pubic and axillary hair is sparse or absent in CAIS. Corresponding cell cultures contain as androgen predominantly testosterone and only traces of DHT. Growth of unwanted hair in the corresponding body regions cannot be prevented by blocking of 5α-reductase. According to the present invention, this is possible by blocking the androgen receptor against DHT. In almost all hair follicles (with the exception of scalp, pubic and axillary hair) specific cells of the dermal papilla are driven by DHT to promote hair growth.

sebaceous glands = assay: Topical application to the face and other acne-prone skin areas; type: in vivo
Description: as §1

forehead skin = details: applied to the forehead skin of patients with acne, 1% solution; cited from earlier work
[5] = loaded to solid lipid nanoparticles; cited from earlier work

## C[C@]12CC[C@H]3[C@@H](CCC4=C(O)C(=O)CC[C@@]43C)[C@@H]1CC[C@@H]2O [4-OHT, 4,17β-dihydroxyandrost-4-en-3-one]
[1]; topical
  adipose tissue / adipocytes: marked diminution and shrinkage of the adipocytes; also recorded: shrinkage of adipose tissue
[1]; topical formulation, collagen content of the skin
  topical formulation compared with 4-OHA: superior than 4-OHA
[1]; topical preparation, within four weeks
  solidification of the skin: considerable solidification of the skin
[1]; topical, skin areas over the buttocks
  concentration of collagen fibres: anabolically increases the concentration of collagen fibres
[1]; topical, hair growth or pimples
  androgenic effect after application to the skin: no androgenic effect whatsoever could be observed
5α-reductase [2]
  inhibition of 5α-reductase: able to inhibit this enzyme (probably both isoforms)
[3]; combination with dimethyl isosorbide (Arlasolve DMI)
  effect on body odor of the combination with a penetration enhancer: Optimal results
[3]; topical, axilla
  androgen dependent production of volatile fatty acids responsible for body odour: immediately prevents the androgen dependent production of volatile fatty acids
5α-reductase [4]
  5α-reduction: escapes aromatization or 5α-reduction
Androgen receptor (AR)
  binding affinity to the AR compared with DHT: higher affinity to the AR than DHT
striae
  striae rubrae and striae albae: makes them disappear
  thickness of the skin: increasing thickness of the skin
aromatase
  aromatization: escapes aromatization or 5α-reduction
Hair follicles; after six months
  type of hair produced by the follicles: most of the follicles are producing solely vellous hair
Hair follicles; body regions other than scalp
  growth of body hairs: grow slower and less dense and in addition thinner and blonder
Sebaceous glands
  size and capability of sebaceous glands: reduces size and capability of sebaceous glands

## CC(=O)O[C@]1(C(C)=O)CC[C@H]2[C@@H]3C=C(Cl)C4=CC(=O)[C@@H]5C[C@@H]5[C@]4(C)[C@H]3CC[C@@]21C [Cyproterone acetate, cyproterone acetate]
Forehead skin
  sebum excretion rate: not able to reduce the sebum excretion rate
[5]
  increase in CPA absorption by the skin: 2-3 fold
